1 compound from US11572590B2, “Methods for evaluating tumor cell spheroids using 3D microfluidic cell culture device” (Dana-Farber Cancer Institute, Inc., priority 2017, dated 2023) can be followed below.

Molecules are shown by their SMILES. Where two headings read alike, the source gives them in different places.

One may read the inhibition as the drop in the measured response relative to a control, in per cent.

What all share (assay): SelectScreen Kinase Profiling, single point inhibition and IC50 for off-target kinases
Assay type in all cases: biochemical

The target of assay [1] is off-target kinases (Homo sapiens, UniProt P30291). As to conditions: WEE1, LanthaScreen Binding.
The target of assay [2] is off-target kinases (Homo sapiens, UniProt Q16816). Conditions: PHKG1, ZLYTE, ATP Km app.
Assay [3] deals with off-target kinases (Homo sapiens, UniProt P49137). Conditions: MAPKAPK2, ZLYTE, ATP Km app.
Assay [4] deals with T1, off-target kinases (Homo sapiens, UniProt Q9UF33).
T1 sequence (Q9UF33 23-1036): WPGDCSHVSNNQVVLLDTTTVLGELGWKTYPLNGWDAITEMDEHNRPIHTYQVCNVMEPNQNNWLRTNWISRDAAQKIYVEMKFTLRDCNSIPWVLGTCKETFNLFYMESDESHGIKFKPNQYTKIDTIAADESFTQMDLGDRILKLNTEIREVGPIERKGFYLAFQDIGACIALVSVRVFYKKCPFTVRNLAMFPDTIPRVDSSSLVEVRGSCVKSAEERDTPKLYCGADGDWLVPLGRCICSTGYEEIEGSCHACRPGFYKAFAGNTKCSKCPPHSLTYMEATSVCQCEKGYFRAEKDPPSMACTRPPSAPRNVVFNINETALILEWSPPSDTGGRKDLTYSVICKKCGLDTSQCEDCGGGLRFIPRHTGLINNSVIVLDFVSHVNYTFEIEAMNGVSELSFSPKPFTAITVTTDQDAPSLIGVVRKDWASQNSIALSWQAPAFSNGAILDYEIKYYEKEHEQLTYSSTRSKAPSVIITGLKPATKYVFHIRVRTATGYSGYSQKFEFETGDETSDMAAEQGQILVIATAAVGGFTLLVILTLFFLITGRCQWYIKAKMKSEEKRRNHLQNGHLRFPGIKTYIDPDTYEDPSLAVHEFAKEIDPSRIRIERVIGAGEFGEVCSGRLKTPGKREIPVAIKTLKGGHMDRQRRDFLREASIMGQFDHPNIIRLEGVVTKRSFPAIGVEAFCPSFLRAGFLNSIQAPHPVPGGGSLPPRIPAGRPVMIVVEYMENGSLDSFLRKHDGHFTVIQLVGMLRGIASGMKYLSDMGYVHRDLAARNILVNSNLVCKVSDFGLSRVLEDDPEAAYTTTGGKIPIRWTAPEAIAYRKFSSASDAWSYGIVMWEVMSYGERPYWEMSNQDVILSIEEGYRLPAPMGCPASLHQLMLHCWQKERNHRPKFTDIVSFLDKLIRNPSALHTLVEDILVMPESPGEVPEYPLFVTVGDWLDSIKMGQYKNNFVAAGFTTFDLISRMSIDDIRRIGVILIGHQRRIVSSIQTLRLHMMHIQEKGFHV
Conditions: EPHA6, LanthaScreen Binding.

The target of assay [5] is off-target kinases (Homo sapiens, UniProt Q13177). As to conditions: PAK2 (PAK65), ZLYTE, ATP Km app.
Chain of off-target kinases (Homo sapiens, UniProt Q13177) (Q13177 whole entry): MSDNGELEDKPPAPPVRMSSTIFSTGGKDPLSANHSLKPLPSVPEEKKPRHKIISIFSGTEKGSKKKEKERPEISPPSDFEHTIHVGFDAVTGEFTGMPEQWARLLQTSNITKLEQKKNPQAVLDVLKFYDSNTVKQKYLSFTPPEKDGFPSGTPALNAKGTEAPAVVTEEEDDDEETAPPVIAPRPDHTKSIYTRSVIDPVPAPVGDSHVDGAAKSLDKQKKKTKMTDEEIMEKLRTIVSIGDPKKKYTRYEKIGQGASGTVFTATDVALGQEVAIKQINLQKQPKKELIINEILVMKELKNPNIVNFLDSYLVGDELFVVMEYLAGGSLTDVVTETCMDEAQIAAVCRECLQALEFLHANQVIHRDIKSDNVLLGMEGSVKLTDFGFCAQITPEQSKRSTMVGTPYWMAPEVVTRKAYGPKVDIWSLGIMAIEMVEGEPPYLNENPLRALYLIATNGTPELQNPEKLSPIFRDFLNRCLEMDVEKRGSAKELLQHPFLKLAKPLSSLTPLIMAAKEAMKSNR

Chain of off-target kinases (Homo sapiens, UniProt P49137) (P49137 whole entry): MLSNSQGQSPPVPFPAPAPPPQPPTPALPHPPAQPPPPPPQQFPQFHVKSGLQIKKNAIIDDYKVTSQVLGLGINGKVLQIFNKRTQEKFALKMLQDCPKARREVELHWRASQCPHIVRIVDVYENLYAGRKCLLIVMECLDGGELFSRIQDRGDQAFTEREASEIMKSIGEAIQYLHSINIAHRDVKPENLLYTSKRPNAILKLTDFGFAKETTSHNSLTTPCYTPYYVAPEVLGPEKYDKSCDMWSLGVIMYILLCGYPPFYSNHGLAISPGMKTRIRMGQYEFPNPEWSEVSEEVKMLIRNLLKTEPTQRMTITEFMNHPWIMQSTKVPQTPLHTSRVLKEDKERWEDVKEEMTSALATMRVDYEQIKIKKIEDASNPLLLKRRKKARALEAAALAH
Chain of off-target kinases (Homo sapiens, UniProt P30291) (P30291 whole entry): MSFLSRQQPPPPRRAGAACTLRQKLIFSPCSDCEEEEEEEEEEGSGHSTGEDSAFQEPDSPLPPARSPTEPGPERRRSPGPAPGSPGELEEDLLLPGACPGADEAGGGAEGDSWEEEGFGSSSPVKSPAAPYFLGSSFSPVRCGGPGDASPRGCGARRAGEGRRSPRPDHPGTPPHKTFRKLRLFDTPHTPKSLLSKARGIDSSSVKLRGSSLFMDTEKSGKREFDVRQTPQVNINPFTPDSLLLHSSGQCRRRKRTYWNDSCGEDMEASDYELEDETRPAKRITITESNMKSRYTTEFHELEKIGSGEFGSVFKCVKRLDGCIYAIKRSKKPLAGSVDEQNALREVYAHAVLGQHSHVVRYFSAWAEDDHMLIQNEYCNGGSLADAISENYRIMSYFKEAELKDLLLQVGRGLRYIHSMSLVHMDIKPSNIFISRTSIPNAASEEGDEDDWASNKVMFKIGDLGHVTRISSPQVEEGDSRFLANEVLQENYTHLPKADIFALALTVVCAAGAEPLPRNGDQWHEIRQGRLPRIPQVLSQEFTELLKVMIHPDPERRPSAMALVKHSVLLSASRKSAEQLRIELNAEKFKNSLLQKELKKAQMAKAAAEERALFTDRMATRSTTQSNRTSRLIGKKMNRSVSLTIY
Chain of off-target kinases (Homo sapiens, UniProt Q16816) (Q16816 whole entry): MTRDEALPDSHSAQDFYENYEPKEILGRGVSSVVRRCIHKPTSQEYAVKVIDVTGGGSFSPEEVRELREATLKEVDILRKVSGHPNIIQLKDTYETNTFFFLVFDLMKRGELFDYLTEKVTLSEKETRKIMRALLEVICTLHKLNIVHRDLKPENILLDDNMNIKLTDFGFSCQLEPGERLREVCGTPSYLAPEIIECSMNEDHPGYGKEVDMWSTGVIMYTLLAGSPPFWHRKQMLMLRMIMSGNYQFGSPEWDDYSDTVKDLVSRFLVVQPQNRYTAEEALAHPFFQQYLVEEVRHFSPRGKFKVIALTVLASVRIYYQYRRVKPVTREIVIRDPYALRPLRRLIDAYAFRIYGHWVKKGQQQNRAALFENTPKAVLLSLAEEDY

Turning to `N#Cc1cc(-c2ncnc(Nc3ccc(N4CCN(C5COC5)CC4)cc3)n2)ccc1OC1CCOCC1` [Compound 1, 5-(4-((4-(4-(oxetan-3-yl)piperazin-1-yl)phenyl)amino)-1,3,5-triazin-2-yl)-2-((tetrahydro-2H-pyran-4-yl)oxy)benzonitrile], the inhibition at off-target kinases [1] (read-out: % Inhibition 1) was 28%; on off-target kinases [1] (read-out: % Inhibition 2), 36%; on off-target kinases [1] (read-out: % Inhibition Avg), 32%; on off-target kinases [2] (read-out: % Inhibition 1), 39%; at off-target kinases [2] (read-out: % Inhibition 2), 37%; at off-target kinases [2] (read-out: % Inhibition Avg) it was 38%. In addition, the inhibition on off-target kinases [3] (read-out: % Inhibition 1) was 0%; at off-target kinases [3] (read-out: % Inhibition 2) it was -1%; on off-target kinases [3] (read-out: % Inhibition Avg), 0%; on off-target kinases [4] (read-out: % Inhibition 1), 9%; on off-target kinases [4] (read-out: % Inhibition 2), 20%; at off-target kinases [4] (read-out: % Inhibition Avg) it was 14%. The results for the inhibition on off-target kinases [5] (read-out: % Inhibition 1), on off-target kinases [5] (read-out: % Inhibition 2) and at off-target kinases [5] (read-out: % Inhibition Avg) were 6%, -1% and 3%, respectively.
